Source: EPA's ToxValDB 9.5
≈ marks a conversion by molar mass, not a printed value. Where “and” joins values, the source holds several entries; their conditions need not be identical. Identical values can stand only once.

Experiments:
Daphnia magna = settings: acute; mortality
Pontoscolex corethrurus = settings: acute; mortality
Anas platyrhynchos = settings: oral, mortality
Rattus norvegicus = settings: for LD50: acute, mortality
Oryctolagus sp. = settings: reproduction developmental
Canidae = settings: Dog Other
Mus musculus = settings: chronic
Bovidae = settings: repeat dose other; oral; hematological
Apis mellifera = settings: acute, mortality
[1] = duration: 21 months, M, hematological
[2] = duration: 23 months, F, hematological
[3] = subchronic, duration: 90 days, oral, diet, F, Not specified, clinical chemistry

For CC(=O)c1cc(C)sc1C [3-Acetyl-2,5-dimethylthiophene], the LC50 (Daphnia magna) was 6.95 µg/mL (≈ 45.1 µM).

Molecule CCc1nccnc1OC [Pyrazine, 2-ethyl-3-methoxy-] has an LC50 (Pontoscolex corethrurus) of 243 mg/kg.

Molecule O=c1c2cc(F)ccc2nc(-n2cncn2)n1-c1ccc(Cl)cc1Cl [Fluquinconazole] has an LD50 (Anas platyrhynchos; acute, unspecified) of over 2000 mg/kg-day, an LD50 (Anas platyrhynchos; short-term, feed) of over 210 mg/kg-day and an LD50 (Colinus virginianus; acute, oral, mortality) of over 2000 mg/kg-day. For the same molecule, the NOEL (Colinus virginianus; chronic) was 1.9 mg/kg-day, the LD50 (Rattus norvegicus) was over 112 mg/kg-day and the NOAEL (Rattus norvegicus; chronic) was 0.9 mg/kg-day.

For CC(C)O [Isopropanol], the NOAEL (Oryctolagus sp.; duration: 13 days, oral, gavage, F, New Zealand, mortality) was 240 mg/kg-day.

O=[N+]([O-])[O-] [Nitrate] showed an NOAEL (Sus scrofa; subchronic, duration: 84 days, Not specified, no effects) of 410 mg/kg-day, an NOEL (Rattus norvegicus; chronic, duration: 2 years, growth) of 370 mg/kg-day and an NOEL (Canidae; chronic, duration: 125 days, growth) of 370 mg/kg-day.

With [Ca+2].[I-].[I-].[O-2].[O-2].[O-2].[O-2].[O-2].[O-2] [Iodic acid (HIO3), calcium salt (2:1)] the LEL (Gallus gallus; repeat dose other, no effects) was 5 mg/kg-day, the LEL (Gallus gallus; subchronic, duration: 35 days, oral, diet, M, no effects) was 5 mg/kg-day and the LEL (Sus scrofa; repeat dose other, Not specified, no effects) was 8 mg/kg-day. For the same molecule, the LEL (Sus scrofa; short-term, Not specified, no effects) was 8 mg/kg-day.

Work on O=S(=O)([O-])c1cc(S(=O)(=O)[O-])c2c(N=Nc3ccc(S(=O)(=O)[O-])c4ccccc34)c(O)ccc2c1.[Na+].[Na+].[Na+] [C.I. Acid Red 18, trisodium salt] yielded an NOAEL (Mus musculus; duration: 82 weeks, oral, diet, M/F, neurology) of 70 mg/kg-day.

Molecule CCN(CC)c1ccc(C(=C2C=CC(=[N+](CC)CC)C=C2)c2cc(O)c(S(=O)(=O)[O-])cc2S(=O)(=O)[O-])cc1.[Na+] [C.I. Food Blue 5:2] has an NOAEL (Mus musculus; [1]) of 500 mg/kg-day and an NOAEL (Mus musculus; [2]) of 500 mg/kg-day.

O=C(O)c1cn[nH]c1C(F)F [1H-3-Difluoromethylpyrazole-4-carboxylic acid] showed an NOAEL (Oryctolagus sp.; body weight) of 300 mg/kg-day.

In the case of CC/C=C\CCCCC=O [(Z)-Non-6-enal], the LC50 (Daphnia magna) is reported as 8 µg/mL (≈ 57.1 µM) and the LC50 (Pontoscolex corethrurus) is reported as 191 mg/kg.

In the case of CCCC(=O)C(CC)Sc1ccoc1C (stereo not drawn) [3-(2-Methyl-3-furylthio)-4-heptanone], the NOAEL (Rattus norvegicus; subchronic, duration: 90 days, oral, diet) is reported as 3.76 mg/kg-day, the NOAEL (Rattus norvegicus; subchronic, duration: 90 days, oral, diet, M/F, no effects) is reported as 3.76 mg/kg-day and the NOAEL (subchronic, duration: 90 days) is reported as 3.76 mg/kg-day.

C[C@@H]1Cc2c(Cl)cc(C(=O)N[C@@H](Cc3ccccc3)C(=O)O)c(O)c2C(=O)O1 [Ochratoxin A] gave an LEL (Gallus gallus; repeat dose other, oral, diet, organ weight) of 0.5 mg/kg-day, an LOAEL (Sus scrofa; [3]) of 0.008 mg/kg-day and an LOEL (Sus scrofa; [3]) of 0.008 mg/kg-day. It also gave an LEL (Canidae; short-term, duration: 14 days, histopathology: nonneoplastic) of 0.2 mg/kg-day.

Work on O=N[O-] [Nitrite ion] yielded an NOAEL (Bovidae) of 3.3 mg/kg-day, an NOAEL (Sus scrofa; repeat dose other, oral, diet, Not specified, hematological) of 3.3 mg/kg-day and an NOEL (Rattus norvegicus; chronic, duration: 2 years, oral, drinking water, gross pathology) of 6.7 mg/kg-day.

CCCCCCCCC(=O)NCc1ccc(O)c(OC)c1 [N-Vanillylnonanamide] gave an NOAEL (Rattus norvegicus; subchronic, duration: 90 days, oral, M/F) of 8.4 mg/kg-day and an NOEL (repeat dose other) of 8.4 mg/kg-day.

With O=C([O-])c1ccccc1.[Na+] [Sodium benzoate] the LEL (Sus scrofa; repeat dose other, oral, diet, M/F, Not specified, no effects) was 36000 mg/kg-day, the LEL (Sus scrofa; subchronic, duration: 36 days, oral, diet, Duroc, body weight) was 36000 mg/kg-day and the LEL (Sus scrofa; subchronic, duration: 42 days, oral, diet, Not specified, body weight) was 36000 mg/kg-day.

Molecule CC(c1ccc(C(F)(F)F)nc1)S(C)(=O)=NC#N (stereo not drawn) [Sulfoxaflor] has an LD50 (Apis mellifera; duration: 48 hours, oral, unspecified) of 0.146 µg/piece and an LD50 (Apis mellifera; duration: 72 hours, dermal) of 0.397 µg/piece.

In the case of CCCCC(CC)COC(=O)C1CCC(C(=O)OCC(CC)CCCC)CC1 (stereo not drawn) [Bis(2-ethylhexyl) cyclohexane-1,4-dicarboxylate], the NOAEL (subchronic, duration: 90 days, oral, no effects) is reported as 1000 mg/kg-day.

Molecule COC(=O)CCC(=O)O[C@H]1CC(C)(C)C(/C=C/C(C)=C/C=C/C(C)=C/C=C/C=C(C)/C=C/C=C(C)/C=C/C2=C(C)C(=O)[C@@H](OC(=O)CCC(=O)OC)CC2(C)C)=C(C)C1=O [Astaxanthin dimethylsuccinate] has an LEL (Oncorhynchus mykiss; chronic/long-term, duration: 8 weeks, oral, feed, no effects) of 908 mg/kg and an NOAEL (Mus musculus; duration: 80 weeks, oral, body weight) of 14 mg/kg-day.

Work on NC(N)=NCC(=O)O [N-(Aminoiminomethyl)glycine] yielded an LEL (Gallus gallus; subchronic, duration: 35 days, oral, diet, hematological) of 1500 mg/kg-day.

For CCN(CC)c1ccc(C(=C2C=CC(=[N+](CC)CC)C=C2)c2cc(O)c(S(=O)(=O)[O-])cc2S(=O)(=O)[O-])cc1.CCN(CC)c1ccc(C(=C2C=CC(=[N+](CC)CC)C=C2)c2cc(O)c(S(=O)(=O)[O-])cc2S(=O)(=O)[O-])cc1.[Ca+2] [Acid Blue 3], the NOAEL (Mus musculus; [1]) was 500 mg/kg-day and the NOAEL (Mus musculus; [2]) was 500 mg/kg-day.

N#Cc1nn(-c2c(Cl)cc(C(F)(F)F)cc2Cl)c(N)c1S(=O)C(F)(F)F (stereo not drawn) [Fipronil] showed an LD50 (Apis mellifera; dermal) of 0.00593 µg/piece and an LD50 (Apis mellifera; oral, unspecified) of 0.00417 µg/piece.

Molecule CCOC(=O)C(CC)C(C)=O (stereo not drawn) [Butanoic acid, 2-ethyl-3-oxo-, ethyl ester] has an NOAEL (repeat dose other, development) of 600 mg/kg-day.

For COc1nc(C)nc(N)n1 [2-Methyl-4-amino-6-methoxy-s-triazine], the LD50 (acute, dermal, F, mortality) was 1000 mg/kg and the LC50 (acute, inhalation, mortality) was over 5.2 µg/mL.

In the case of C=CCc1ccc(O)c(OC)c1 [Eugenol], the LC50 (Oncorhynchus mykiss; acute, duration: 96 hours, mortality) is reported as 5.6 µg/mL and > 10 µg/mL, the NOAEL (Oryctolagus sp.; clinical signs) is reported as 100 mg/kg-day and the LD50 (Rattus norvegicus; oral) is reported as 1930 mg/kg. The NOAEL (Rattus norvegicus; chronic, duration: 2 years, body weight) was 300 mg/kg-day, the NOEL (Rattus norvegicus; developmental, development) was 250 mg/kg-day and the NOAEL (Rattus norvegicus; reproduction developmental, clinical signs) was 100 mg/kg-day.

CCC=C(C)C(=O)O [2-Methylpent-2-en-1-oic acid] gave an LC50 (Pontoscolex corethrurus) of 2040 mg/kg.

C1CCC(SSC2CCCCC2)CC1 [Dicyclohexyl disulfide] showed an NOAEL (subchronic, duration: 90 days, oral) of 0.23 mg/kg-day.
